Assay results published in publication PMC10229426, “An optimized bioluminescent substrate for non-invasive imaging in the brain” (Nature Chemical Biology, 2023).

Columns and labels:
Antares luciferase = biological target: T1, Antares luciferase (Oplophorus gracilirostris, UniProt Q9GV45, A31E/A60N/A81I/F95D/I117V/K70R/L54V/L99Q/M102K/N193R/P142E/Q151K/Q38R/Q45L/V71I/Y165I); test: Non-invasive detection of Antares in the liver (Alb-cre driver); assay type: in vivo, mouse; conditions: 1.3 µmol i.p.
T1 construct: expressed in transfected cells; host or cells: transgenic mice with CAG-LSL-Antares at the H11 locus, crossed to Cre driver lines (neurons or liver)
T1 sequence (Q9GV45 other isoform, or with tags, fused parts or gaps with the stated changes): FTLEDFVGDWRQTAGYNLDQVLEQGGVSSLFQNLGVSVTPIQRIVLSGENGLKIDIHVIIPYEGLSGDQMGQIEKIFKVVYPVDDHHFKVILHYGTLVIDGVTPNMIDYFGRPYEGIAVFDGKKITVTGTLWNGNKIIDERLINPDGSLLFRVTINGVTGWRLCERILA
Description: Transgenic reporter mice with LSL-CAG-luciferase (Antares, FLuc or AkaLuc) inserted at the H11 locus (H11P) were generated by φC31-mediated recombination in blastocysts[48] by the Stanford Transgenic, Knockout and Tumor Model Center. For substrate comparisons, 2- to 4-month-old transgenic mice doubly hemizygous for a Camk2a-cre (Jackson Laboratory, 005359), Vgat-IRES-cre (Jackson Laboratory), Vglut2-IRES-cre (Jackson Laboratory, 016963) or Alb-cre (Jackson Laboratory, 003574) driver and a CAG-LSL-Antares, CAG-LSL-AkaLuc or CAG-LSL-FLuc reporter were anesthetized by inhalation of isoflurane for 5 min. An electric shaver was used to remove scalp hair in Camk2a-cre, Vglut2-IRES-cre or Vgat-IRES-cre mice or abdominal hair in Alb-cre mice. Nair depilatory cream (Church and Dwight) was then applied to the shaved area for 1 min, and remaining hair was removed with a piece of sterile gauze. […]
For mice expressing Antares, indicated amounts of Fz were dissolved in 480 µl of a PEG-300-based formulation consisting of 10% glycerol, 10% ethanol, 10% hydroxypropylcyclodextrin and 35% PEG-300 in water, or indicated amounts of lyophilized Fz analogs with P-407 vehicle were reconstituted in 150–500 µl of DPBS buffer. […] Integrated luminescence was quantified using the Fiji version of the ImageJ program (NIH)[49], with further statistical analysis performed in GraphPad Prism (version 9.0.0).

[1] = Toxicity in mice: necropsy and histopathology; assay type: in vivo, C57BL/6 mice; parameters: key: 0: absent; 1: present; conditions: individual mice
Protocol: (§1) Male C57BL/6 mice of 2 months of age were killed by CO2 asphyxiation and cardiac exsanguination. All mice were weighed, and a complete gross examination of the external and internal organs was performed. […] Formalin-fixed tissues were processed routinely, embedded in paraffin, sectioned at 5 μm and stained with hematoxylin and eosin. All slides were blindly evaluated for histologic treatment-related effects (Supplementary Table 1) by a board-certified veterinary pathologist.

Antares = Antares (Oplophorus gracilirostris, UniProt Q9GV45, A31E/A60N/A81I/F95D/I117V/K70R/L54V/L99Q/M102K/N193R/P142E/Q151K/Q38R/Q45L/V71I/Y165I); test: Enzymatic analysis of Antares and Fz analogs; assay type: biochemical; parameters: His tag (inferred from purification on HisLink resin); made in house; host or cells: Escherichia coli; conditions: for Relative kcat: relative to Fz
Antares, sequence (Q9GV45 other isoform, or with tags, fused parts or gaps with the stated changes): as above
Protocol: Two milliliters of LB broth with 100 µg ml^–1 ampicillin was inoculated with a single colony of clone ATG-3802 (Antares codon optimized for Escherichia coli) and grown overnight at 37 °C. On the following day, the overnight culture was diluted 1:100 into a flask containing 50 ml of Terrific Broth and 100 µg ml^–1 ampicillin. The sample was grown at 37 °C with shaking (275 r.p.m.) for 4 h. The culture was chilled on ice, and 1% rhamnose was added to induce protein expression. The culture was placed in a 15 °C shaker (275 r.p.m.) and grown for 48 h. Cells were collected by centrifugation and resuspended in 10 ml of 100 mM HEPES (pH 7.5), 150 mM NaCl, 10 mM imidazole and 1 mg ml^–1 lysozyme. The resuspended cells were sonicated on ice (5 s on, 5 s off for 2 min, 12 amplitude). The sample was centrifuged (12,000g for 15 min), and 1 ml of HisLink resin (Promega) was added to the cleared lysate. Samples were incubated at 4 °C on an orbital mixer for 2 h. After incubation, the resin was washed three times with HisLink wash buffer (Promega). After the final wash, the sample was eluted (incubated 3 min with mixing) two times with 1 ml of HisLink elution buffer (Promega). The sample was dialyzed (10-kDa molecular weight cutoff, Thermo Fisher Slide-A-Lyzer) for 24 h in TBS and 50% glycerol.
To quantify luminescence as a function of substrate concentration, substrates were diluted to 30 μM and serially diluted in twofold steps into DPBS with 0.01% BSA in triplicate. Fifty microliters of each substrate dilution was then mixed with 50 μl of a solution of 20 pM Antares protein in DPBS with 0.01% BSA. Luminescence was measured immediately using a GloMax-Multi+ luminometer (Promega). Km and Vmax were then calculated using the Michaelis–Menten non-linear regression function in the program Prism (GraphPad).

[2] = Toxicity in mice: necropsy and histopathology; assay type: in vivo, C57BL/6 mice; parameters: key: 0: absent; 1: minimal accumulation; 2: mild accumulation; 3: moderate accumulation; 4: severe accumulation; conditions: individual mice
Protocol: as §1

SMILES	liver signal, 6 versus FFz (Antares luciferase)	HT, heart telangiectasia score ([1]; 1 day, 4.2 µmol, 20 mg P-407)	HPMC, heart perivascular myxomatous change score ([1]; 3 days, 4.2 µmol, 20 mg P-407)	HT, heart telangiectasia score ([1]; 3 days, 4.2 µmol, 20 mg P-407)	HPMC, heart perivascular myxomatous change score ([1]; 5 days, 1.3 µmol, 12 mg P-407)	HT, heart telangiectasia score ([1]; 5 days, 1.3 µmol, 12 mg P-407)	Km (Antares) [nM]	Relative kcat (Antares)	KCHMV, Kupffer cell hyperplasia and microvesicular vacuolation score ([2]; 3 days, 4.2 µmol, 20 mg P-407)	KCHMV, Kupffer cell hyperplasia and microvesicular vacuolation score ([2]; 5 days, 1.3 µmol, 12 mg P-407)
O=c1c(Cc2ccco2)nc2c(Cc3ccccc3)[nH]c(-c3cccc(F)c3F)cn1-2 [compound 6, cephalofurimazine]	threefold dimmer than FFz	1	1	1	1	1	470	1.33	2	2
O=c1c(Cc2ccco2)nc2c(Cc3ccccc3)[nH]c(-c3ccccc3)cn1-2 [Fz, furimazine, reference compound]							380	1.0		
